Article PMC9597602, “Metal Complexes as Antifungals? From a Crowd-Sourced Compound Library to the First In Vivo Experiments” (JACS Au, 2022)
Where two headings read alike, the source gives them in different places.

What was measured:
C. albicans (ATCC 90028) [1] = test: Galleria mellonella infection (log CFU reduction) assay; type: in vivo, Candida albicans in Galleria mellonella larvae; conditions: 1 mM, 10 μL; Pt1 19 mg/kg, Pt2 28 mg/kg, fluconazole 12 mg/kg; 24 h at 37 °C; vs 10% DMSO control
Protocol: To quantify the possible protective effect of Pt1 and Pt2 in G. mellonella challenged with C. albicans, we conducted a CFU reduction assay with these compounds. Briefly, G. mellonella larvae were inoculated with C. albicans (ATCC 90028) and incubated for 2 h at 37 °C. The larvae were then injected with 10 μL of the corresponding compound solution (1 mM) or control (same concentration and injection volume) and incubated for 24 h at 37 °C. The larvae were then anesthetized, macerated, and serially diluted onto SDA (Sabouraud dextrose agar) plates. After 48 h of incubation, the CFUs were counted.
A log CFU reduction assay was conducted for two compounds and two control groups. […] Fluconazole (1 mM) and 10% DMSO were used once again as the control groups. Fifteen G. mellonella larvae (200–250 mg) per test group were selected and inoculated with 10 μL of C. albicans at a concentration of 5 × 10^7 cells/mL and incubated on 90 mm Petri dishes in groups of five larvae for 2 h at 37 °C. Larvae were then subsequently injected with 10 μL of the corresponding test compound or control and returned to Petri dishes to incubate for 24 h at 37 °C.
Larvae were then anesthetized on ice for 5 to 10 min before being placed in individual prefilled 2 mL tubes with 3.0 mm diameter zirconium beads with 1000 μL of PBS. They were then macerated briefly using the BeadBug 6 Homogenizer (Benchmark Scientific, USA) in two 45 s intervals at 4350 rpm. After homogenization, serial dilutions of 1:100, 1:1000, and 1:10,000 were then made for each larva/tube, and 100 μL of the dilution was spread plated onto SDA plates with 50 μg/mL chloramphenicol. Plates were then incubated at 27 °C for 48 h before CFUs were counted.
A one-way ANOVA was conducted to compare the CFU counts for Pt1, Pt2, and both controls. After a significant difference was observed between the groups, a subsequent Tukey’s pairwise test was used to compare the individual test groups with each other.

[2] = test system: Candida albicans ATCC 90028 NCCLS11; test: Antifungal MIC assay; type: cell-based; conditions: for MIC: Candida albicans, ATCC90028, comparator antifungals, read-out: MIC* Candida albicans ATCC 90028
Procedure, shortened: (§1)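 Read-out was the lowest compound concentration producing ≥80% growth inhibition, scored per CLSI M27. Yeast cells, precultured on YPD agar, were tested in YNB medium at a final 2.5 × 10^3 CFU/mL over 36 h at 35 °C.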

C. albicans (ATCC 90028) [3] = test: Galleria mellonella infection (survival) assay; type: in vivo, Candida albicans in Galleria mellonella larvae; conditions: G. mellonella inoculated with C. albicans, 10 μL compound solution, 5 days, vs untreated control
Protocol: In an initial survival assay, G. mellonella larvae were inoculated with C. albicans (ATCC 90028). The larvae were then injected with 10 μL of the compound solution, and their survival was monitored for the next 5 days. Fluconazole and 10% DMSO injections were used as controls.
The globally available strains for C. albicans and C. neoformans, namely, ATCC 90028 and H99, respectively, were used to assess the antifungal potential of the panel of cobalt complex compounds in the G. mellonella insect model. Each strain was cultured on Sabouraud dextrose agar (SDA) for 24–48 h at 27 °C prior to inoculation. Yeast colonies were then suspended in a phosphate-buffered saline solution (PBS), and cells’ concentrations were adjusted using a Neubauer counting chamber to 5 × 10^7 cells for ATCC 90028 and 1 × 10^8 cells for H99. Compounds were prepared by dissolving in 100% dimethylsulfoxide (DMSO) to 4 or 10 mM depending on compound solubility before being further diluted with water to 0.4 or 1 mM for injection into larvae.
Each group of larvae was subsequently incubated at 37 °C for 2 h in 90 mm Petri dishes. After incubation, larvae were injected with 10 μL of the compound into the last right pro-leg and returned to Petri dishes to incubate at 37 °C for 5 days. In addition to the panel of metal compounds, fluconazole (FLC) was included as a positive control (1 and 0.4 mM) and reference antifungal. Larvae inoculated with just the fungal strains and the fungal strains with 10% DMSO were also included as comparison groups. Larvae injected concurrently with PBS instead of fungal inoculum and compounds were used as negative controls. All larvae were checked daily for survival.

[4] = test system: Cryptococcus neoformans H99 ATCC 208821 type strain; test: Antifungal MIC assay; type: cell-based; conditions: for MIC: Cryptococcus neoformans, ATCC208821, comparator antifungals, read-out: MIC* Cryptococcus neoformans ATCC 208821
Procedure, shortened: as §1

[5] = test system: Candida auris CBS12373 KCTC 17810; test: Antifungal MIC assay, extended panel; type: cell-based; conditions: for MIC: read-out: MIC* Candida auris CBS12373
Procedure, shortened: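 Yeast was grown for 3 days at 30 °C on YPD agar. Five colonies were suspended to 1 × 10^6 to 5 × 10^6 CFU/mL, checked by OD530, diluted in YNB medium, and dispensed onto compound-loaded 384-well NBS plates at 2.5 × 10^3 CFU/mL in 50 μL. Plates were covered and incubated without shaking at 35 °C for 36 h to determine MIC.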

[6] = test system: Candida auris CBS10913 JCM 15448; test: Antifungal MIC assay, extended panel; type: cell-based; conditions: for MIC: Candidozyma auris, comparator antifungals, read-out: MIC* Candida auris CBS10913
Procedure, shortened: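 Yeast strains were grown on YPD agar at 30 °C for 3 days. Five colonies were suspended to 1 × 10^6 to 5 × 10^6 CFU/mL (by OD530), diluted in YNB medium, and dispensed into compound-containing 384-well NBS plates to 2.5 × 10^3 CFU/mL in 50 μL. Covered plates were held at 35 °C for 36 h without shaking, and MIC was determined by broth dilution.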

human red blood cells = type: cell-based
Procedure, shortened: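 Washed human erythrocytes at 0.5 × 10^8 cells/mL incubated with compound, then centrifuged. Haemolysis read as supernatant OD405, normalised to untreated cells (0%) and 1% Triton X-100 (100%), with melittin as internal plate control.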

[7] = test system: Candida tropicalis ATCC 750; test: Antifungal MIC assay, extended panel; type: cell-based; conditions: extended panel; 50% inhibition, MIC score 2
[8] = test system: Cryptococcus deuterogattii CBS7750 VGII; Serotype B; test: Antifungal MIC assay, extended panel; type: cell-based; conditions: extended panel; 50% inhibition, MIC score 2
[9] = test system: HEK-293 human embryonic kidney cells ATCC CRL-1573
Protocol: The cells were incubated together with the compounds for 20 h at 37 °C in 5% CO2. […] Tamoxifen (Sigma T5648) was used as internal control on each plate.

[10] = test system: Candida glabrata ATCC 90030 NCCLS 84; test: Antifungal MIC assay, extended panel; type: cell-based; conditions: extended panel, second batch; ≥80 or ≥50% inhibition
Procedure, shortened: as §1

[11] = test system: Cryptococcus deuterogattii CBS7750 VGII; Serotype B; test: Antifungal MIC assay, extended panel; type: cell-based; conditions: extended panel, second batch; ≥80 or ≥50% inhibition
Procedure, shortened: as §1

[12] = test system: Cryptococcus deuterogattii ATCC 32609 VGII; test: Antifungal MIC assay, extended panel; type: cell-based; conditions: extended panel, second batch; ≥80 or ≥50% inhibition
[13] = test system: Candida tropicalis ATCC 750; test: Antifungal MIC assay, extended panel; type: cell-based; conditions: extended panel, second batch; ≥80 or ≥50% inhibition
Procedure, shortened: as §1

[14] = test system: Acinetobacter baumannii ATCC 19606 type strain; test: CO-ADD antibacterial MIC assay; type: cell-based; conditions: initial CO-ADD dose-response screening; ≥80% growth inhibition
Procedure, shortened: (§2)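 CAMHB broth microdilution; inoculum 5 × 10^5 CFU/mL from mid-log culture; 37 °C 18 h static; OD600 read-out; MIC at ≥80% inhibition; colistin (Gram-negative) and vancomycin (Gram-positive) internal controls.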

[15] = test system: Escherichia coli ATCC 25922 FDA control strain; test: CO-ADD antibacterial MIC assay; type: cell-based; conditions: initial CO-ADD dose-response screening; ≥80% growth inhibition
Procedure, shortened: as §2

[16] = test system: Pseudomonas aeruginosa ATCC 27853 QC control strain; test: CO-ADD antibacterial MIC assay; type: cell-based; conditions: initial CO-ADD dose-response screening; ≥80% growth inhibition
Procedure, shortened: as §2

[17] = test system: methicillin-resistant Staphylococcus aureus ATCC 43300; test: CO-ADD antibacterial MIC assay; type: cell-based; conditions: initial CO-ADD dose-response screening; ≥80% growth inhibition
Procedure, shortened: as §2

[18] = test system: Candida glabrata ATCC 90030 NCCLS 84; test: Antifungal MIC assay, extended panel; type: cell-based; conditions: extended panel; 50% inhibition, MIC score 2
[19] = test system: human ovarian carcinoma cell line A2780; conditions: cited from earlier work
[20] = test system: Cryptococcus deuterogattii ATCC 32609 VGII; test: Antifungal MIC assay, extended panel; type: cell-based; conditions: extended panel; 50% inhibition, MIC score 2
[21] = ≥80% inhibition, converted with MW of Table S12
[22] = extended panel, second batch, ≥80 or ≥50% inhibition
[23] = extended panel, 50% inhibition, MIC score 2
[24] = initial CO-ADD dose-response screening, ≥80% growth inhibition

With `OC(Cn1cncn1)(Cn1cncn1)c1ccc(F)cc1F` [Fluconazole, reference compound] the “reduction in CFUs” value (C. albicans (ATCC 90028) [1]) was 1.1 log10, the MIC ([2]; MIC = ≥80% inhibition) was 0.004 µg/mL and the MIC [2, 21] was 0.018 µM. The larva survival (C. albicans (ATCC 90028) [3]) was “significant larva survival”, the MIC ([4]; MIC = ≥80% inhibition) was 2 to 4 µg/mL and the MIC [4, 21] was 9.25 to 18.5 µM. For the same compound, the MIC ([5]; Candidozyma auris, comparator antifungals, MIC = ≥80% inhibition) was no more than 0.004 µg/mL, the MIC ([5]; Candidozyma auris, comparator antifungals, ≥80% inhibition, converted with MW of Table S12) was no more than 0.018 µM and the MIC ([6]; MIC = ≥80% inhibition) was no more than 0.004 µg/mL. The MIC [6, 21] was no more than 0.018 µM.

In the case of `Cc1c(C)c(C)[c-](C)c1C.Cc1c(C)c(C)[c-](C)c1C.[Cl-].[Cl-].[Cl-].[Cl-].[Rh+3].[Rh+3]` [Rh1], the “RBC HC10” value (human red blood cells; initial CO-ADD screening, 1 h, 10% hemolysis) is reported as greater than 32 µg/mL, the “RBC HC10” value (human red blood cells; ranges obtained upon retesting, new batch) is reported as 0.4 to 3 µM and the “MIC50 Candida tropicalis ATCC 750” value [7] is reported as 0.391 to 0.781 µM. For the same compound, the “MIC50 Cryptococcus deuterogattii CBS7750” value [8] was 0.391 µM, the “MIC Candida albicans ATCC 90028” value [2, 22] was 0.39 to 1.56 µM and the “MIC50 Candida albicans ATCC 90028” value [2, 23] was 0.391 to 1.56 µM. For the same compound, the “MIC Ca” value [2, 24] was 4 µg/mL, the “HEK CC50” value ([9]; initial CO-ADD screening, 20 h) was greater than 32 µg/mL and the CC50 ([9]; read-out: HEK293 CC50, ranges obtained upon retesting, new batch) was greater than 200 µM. The “cytotoxicity: none up to stated concentration” value ([9]; retest) was greater than 200 µM, the “MIC Cryptococcus neoformans ATCC 208821” value [4, 22] was 0.195 to 0.391 µM and the “MIC50 Cryptococcus neoformans ATCC 208821” value [4, 23] was 0.195 to 0.391 µM. The “MIC Cn” value [4, 24] was 2 µg/mL, the MIC [10] was 6.25 µM and the MIC [11] was 0.391 µM. The “MIC Cryptococcus deuterogattii ATCC 32609” value [12] was 0.781 to 1.56 µM, the “MIC Candida tropicalis ATCC 750” value [13] was 0.391 to 0.781 µM and the “MIC Ab” value [14] was greater than 32 µg/mL. The “MIC Ec” value [15] was greater than 32 µg/mL, the “MIC Pa” value [16] was greater than 32 µg/mL and the “MIC MRSA (Sa)” value [17] was greater than 32 µg/mL. For the same compound, the “MIC50 Candida glabrata ATCC 90030” value [18] was 0.391 to 6.25 µM, the IC50 [19] was 7.3 ± 1.5 µM and the “MIC50 Cryptococcus deuterogattii ATCC 32609” value [20] was 0.78 to 1.56 µM. The MIC [5, 22] was 0.78 µM, the “MIC50 Candida auris CBS12373” value [5, 23] was 0.391 to 0.781 µM and the “MIC Candida auris CBS10913” value [6, 22] was 0.781 to 1.56 µM. For the same compound, the “MIC50 Candida auris CBS10913” value [6, 23] was 0.781 to 1.56 µM.
